Data reported in ChEMBL document CHEMBL5653631, “A Potent and Selective ULK1 Inhibitor Suppresses Autophagy and Sensitizes Cancer Cells to Nutrient Stress” (iScience, 2018).
Blank lines part the entries; values can stand above or below the molecule they belong to.

Key:
[1] = molecular target: T1, Mitogen-activated protein kinase kinase kinase 2 (Homo sapiens) (UniProt Q9Y2U5); experiment: Inhibition of human recombinant MAP3K2 at 500 nM in presence of ATP by radiometric assay relative to control
T1 sequence (whole entry): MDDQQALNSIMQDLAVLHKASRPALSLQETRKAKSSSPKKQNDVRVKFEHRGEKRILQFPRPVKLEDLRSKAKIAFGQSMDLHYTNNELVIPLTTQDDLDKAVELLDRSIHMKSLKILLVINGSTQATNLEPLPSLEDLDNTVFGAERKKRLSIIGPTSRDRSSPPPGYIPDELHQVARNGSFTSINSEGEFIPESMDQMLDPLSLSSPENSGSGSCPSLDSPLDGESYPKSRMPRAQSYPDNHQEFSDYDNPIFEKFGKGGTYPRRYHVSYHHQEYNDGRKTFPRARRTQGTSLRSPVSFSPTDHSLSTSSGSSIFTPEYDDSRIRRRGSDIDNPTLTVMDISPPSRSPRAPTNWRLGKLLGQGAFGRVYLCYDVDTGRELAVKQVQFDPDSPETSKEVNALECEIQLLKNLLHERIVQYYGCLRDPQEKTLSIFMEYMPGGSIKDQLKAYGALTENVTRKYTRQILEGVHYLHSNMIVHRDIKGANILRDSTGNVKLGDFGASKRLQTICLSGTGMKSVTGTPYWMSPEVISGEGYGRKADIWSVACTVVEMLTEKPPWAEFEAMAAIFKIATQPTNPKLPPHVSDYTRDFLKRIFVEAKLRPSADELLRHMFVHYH

[2] = molecular target: T2, Serine/threonine-protein kinase PLK4 (Homo sapiens) (UniProt O00444); experiment: Inhibition of human recombinant PLK4 at 500 nM related to control ULK1
T2 sequence (whole entry): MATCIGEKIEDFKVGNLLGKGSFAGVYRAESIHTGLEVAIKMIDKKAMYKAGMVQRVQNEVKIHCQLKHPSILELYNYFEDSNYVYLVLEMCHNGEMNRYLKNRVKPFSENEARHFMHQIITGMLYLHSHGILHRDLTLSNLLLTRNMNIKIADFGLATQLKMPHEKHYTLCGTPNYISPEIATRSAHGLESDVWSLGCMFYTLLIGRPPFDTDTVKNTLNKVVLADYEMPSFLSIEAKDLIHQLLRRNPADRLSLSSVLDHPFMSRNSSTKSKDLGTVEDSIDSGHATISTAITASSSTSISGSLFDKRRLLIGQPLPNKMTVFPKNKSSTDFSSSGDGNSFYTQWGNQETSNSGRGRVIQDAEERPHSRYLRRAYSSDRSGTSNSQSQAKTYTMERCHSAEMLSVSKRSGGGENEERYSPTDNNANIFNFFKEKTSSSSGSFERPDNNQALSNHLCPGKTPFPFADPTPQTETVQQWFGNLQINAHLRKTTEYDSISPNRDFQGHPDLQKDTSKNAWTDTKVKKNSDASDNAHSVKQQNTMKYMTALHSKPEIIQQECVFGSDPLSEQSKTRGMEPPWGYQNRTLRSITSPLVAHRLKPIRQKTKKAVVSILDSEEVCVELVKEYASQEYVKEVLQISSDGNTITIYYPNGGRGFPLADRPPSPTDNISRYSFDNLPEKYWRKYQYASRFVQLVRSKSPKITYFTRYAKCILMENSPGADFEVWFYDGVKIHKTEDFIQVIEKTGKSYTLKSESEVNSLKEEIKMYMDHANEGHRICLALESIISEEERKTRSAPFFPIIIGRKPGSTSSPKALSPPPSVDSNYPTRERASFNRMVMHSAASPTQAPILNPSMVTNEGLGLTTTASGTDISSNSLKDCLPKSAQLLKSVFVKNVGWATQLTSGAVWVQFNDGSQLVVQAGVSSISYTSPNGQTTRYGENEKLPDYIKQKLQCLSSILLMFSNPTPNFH

[3] = molecular target: Serine/threonine-protein kinase N2 (Homo sapiens) (UniProt Q16513); experiment: Inhibition of human recombinant PKN2 at 500 nM related to control ULK1
[4] = molecular target: Calcium/calmodulin-dependent protein kinase type 1B (Homo sapiens) (UniProt Q6P2M8); experiment: Inhibition of human recombinant CaMK1b at 15 nM related to control ULK1
[5] = molecular target: Serine/threonine-protein kinase pim-3 (Homo sapiens) (UniProt Q86V86); experiment: Inhibition of human recombinant PIM3 at 15 nM in presence of ATP by radiometric assay relative to control
[6] = molecular target: Proto-oncogene tyrosine-protein kinase receptor Ret (Homo sapiens) (UniProt P07949); experiment: Inhibition of human recombinant RET at 15 nM in presence of ATP by radiometric assay relative to control
[7] = molecular target: T3, Ephrin type-B receptor 1 (Homo sapiens) (UniProt P54762); experiment: Inhibition of human recombinant EphB1 at 40 nM related to control ULK1
T3 sequence (whole entry): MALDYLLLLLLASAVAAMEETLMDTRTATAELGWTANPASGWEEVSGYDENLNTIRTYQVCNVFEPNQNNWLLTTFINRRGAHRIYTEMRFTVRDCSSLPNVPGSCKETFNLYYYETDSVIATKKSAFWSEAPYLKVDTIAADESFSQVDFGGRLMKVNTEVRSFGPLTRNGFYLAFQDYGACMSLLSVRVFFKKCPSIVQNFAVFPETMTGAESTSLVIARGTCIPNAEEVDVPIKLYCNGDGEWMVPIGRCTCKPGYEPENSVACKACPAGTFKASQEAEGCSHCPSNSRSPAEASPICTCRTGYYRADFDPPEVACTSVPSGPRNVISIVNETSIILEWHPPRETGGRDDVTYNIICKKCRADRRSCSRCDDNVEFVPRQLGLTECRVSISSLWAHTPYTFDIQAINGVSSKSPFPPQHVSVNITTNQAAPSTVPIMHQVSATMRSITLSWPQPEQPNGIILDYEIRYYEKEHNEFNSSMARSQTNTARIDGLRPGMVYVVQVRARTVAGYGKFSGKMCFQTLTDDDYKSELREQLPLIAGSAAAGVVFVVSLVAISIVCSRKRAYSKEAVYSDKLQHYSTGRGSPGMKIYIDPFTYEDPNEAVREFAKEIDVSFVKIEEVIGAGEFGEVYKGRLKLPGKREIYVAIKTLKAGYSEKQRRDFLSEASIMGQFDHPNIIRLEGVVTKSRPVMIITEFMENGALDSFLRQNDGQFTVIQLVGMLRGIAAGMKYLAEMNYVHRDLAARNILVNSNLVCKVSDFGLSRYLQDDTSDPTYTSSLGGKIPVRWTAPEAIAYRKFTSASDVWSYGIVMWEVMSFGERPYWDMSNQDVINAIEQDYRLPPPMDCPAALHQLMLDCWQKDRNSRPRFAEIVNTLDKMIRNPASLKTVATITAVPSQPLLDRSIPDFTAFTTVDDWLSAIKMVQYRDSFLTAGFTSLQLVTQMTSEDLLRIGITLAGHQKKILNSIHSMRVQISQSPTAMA

[8] = molecular target: Tau-tubulin kinase 1 (Homo sapiens) (UniProt Q5TCY1); experiment: Inhibition of human recombinant TTBK1 at 40 nM related to control ULK1
Sequence of Tau-tubulin kinase 1 (Homo sapiens) (Q5TCY1 whole entry): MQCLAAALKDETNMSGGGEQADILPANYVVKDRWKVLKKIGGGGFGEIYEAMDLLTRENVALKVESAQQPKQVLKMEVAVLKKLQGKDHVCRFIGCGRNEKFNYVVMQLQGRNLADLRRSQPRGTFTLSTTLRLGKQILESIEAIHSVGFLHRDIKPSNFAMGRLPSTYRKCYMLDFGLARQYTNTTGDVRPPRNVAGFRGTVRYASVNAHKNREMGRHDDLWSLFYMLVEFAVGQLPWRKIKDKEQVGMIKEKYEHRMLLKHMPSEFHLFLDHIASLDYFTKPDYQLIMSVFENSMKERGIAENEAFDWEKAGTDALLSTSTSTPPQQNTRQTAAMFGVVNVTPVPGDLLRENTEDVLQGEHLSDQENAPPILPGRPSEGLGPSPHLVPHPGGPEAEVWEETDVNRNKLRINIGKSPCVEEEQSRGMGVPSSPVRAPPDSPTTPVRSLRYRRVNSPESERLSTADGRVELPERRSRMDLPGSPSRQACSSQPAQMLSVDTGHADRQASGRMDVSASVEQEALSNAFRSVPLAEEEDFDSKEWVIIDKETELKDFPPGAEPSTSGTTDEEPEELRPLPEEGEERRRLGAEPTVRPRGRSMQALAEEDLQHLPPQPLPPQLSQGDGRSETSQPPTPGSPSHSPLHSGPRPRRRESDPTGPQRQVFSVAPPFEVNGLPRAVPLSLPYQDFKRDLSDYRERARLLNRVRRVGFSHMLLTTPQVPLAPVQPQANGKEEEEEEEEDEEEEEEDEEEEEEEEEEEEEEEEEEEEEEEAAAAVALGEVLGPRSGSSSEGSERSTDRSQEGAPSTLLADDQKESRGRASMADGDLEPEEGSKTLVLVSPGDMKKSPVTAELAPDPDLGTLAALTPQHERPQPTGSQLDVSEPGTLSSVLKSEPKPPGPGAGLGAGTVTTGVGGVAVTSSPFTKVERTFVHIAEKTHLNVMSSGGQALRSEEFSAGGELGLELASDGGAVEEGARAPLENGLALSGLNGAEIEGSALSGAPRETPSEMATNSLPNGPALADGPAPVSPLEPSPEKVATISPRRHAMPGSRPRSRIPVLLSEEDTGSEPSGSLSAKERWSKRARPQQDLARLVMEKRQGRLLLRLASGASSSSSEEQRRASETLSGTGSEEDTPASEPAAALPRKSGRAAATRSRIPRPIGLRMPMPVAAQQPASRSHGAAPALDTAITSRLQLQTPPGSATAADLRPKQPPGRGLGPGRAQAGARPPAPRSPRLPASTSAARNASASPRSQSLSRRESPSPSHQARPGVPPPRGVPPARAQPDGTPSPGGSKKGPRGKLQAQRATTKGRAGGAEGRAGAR

Sequence of Serine/threonine-protein kinase N2 (Homo sapiens) (Q16513 whole entry, looked up): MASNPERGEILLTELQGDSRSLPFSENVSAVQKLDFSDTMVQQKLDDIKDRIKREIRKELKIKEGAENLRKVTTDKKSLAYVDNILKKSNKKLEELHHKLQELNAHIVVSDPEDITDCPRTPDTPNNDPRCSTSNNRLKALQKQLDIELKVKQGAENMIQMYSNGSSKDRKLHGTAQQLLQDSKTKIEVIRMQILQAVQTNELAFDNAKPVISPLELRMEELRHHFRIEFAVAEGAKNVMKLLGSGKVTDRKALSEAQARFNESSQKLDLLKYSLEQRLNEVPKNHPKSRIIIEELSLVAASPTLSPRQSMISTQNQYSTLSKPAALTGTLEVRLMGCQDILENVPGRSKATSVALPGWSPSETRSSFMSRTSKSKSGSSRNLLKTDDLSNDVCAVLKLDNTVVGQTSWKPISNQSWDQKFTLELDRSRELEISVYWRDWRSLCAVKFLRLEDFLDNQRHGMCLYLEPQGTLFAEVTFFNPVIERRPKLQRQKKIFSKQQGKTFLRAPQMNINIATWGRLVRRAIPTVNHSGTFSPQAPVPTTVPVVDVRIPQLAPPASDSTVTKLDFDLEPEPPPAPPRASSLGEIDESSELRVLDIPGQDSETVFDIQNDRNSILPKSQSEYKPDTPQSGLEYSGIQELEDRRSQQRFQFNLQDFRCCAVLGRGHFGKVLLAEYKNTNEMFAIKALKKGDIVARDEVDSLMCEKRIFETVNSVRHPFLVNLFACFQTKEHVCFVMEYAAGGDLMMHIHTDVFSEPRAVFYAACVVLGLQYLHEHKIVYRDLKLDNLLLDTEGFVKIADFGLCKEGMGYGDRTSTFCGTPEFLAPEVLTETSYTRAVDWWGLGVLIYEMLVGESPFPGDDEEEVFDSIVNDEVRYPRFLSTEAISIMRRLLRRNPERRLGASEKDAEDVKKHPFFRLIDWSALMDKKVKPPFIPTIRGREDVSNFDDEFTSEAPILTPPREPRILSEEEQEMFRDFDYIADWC
Sequence of Calcium/calmodulin-dependent protein kinase type 1B (Homo sapiens) (Q6P2M8 whole entry): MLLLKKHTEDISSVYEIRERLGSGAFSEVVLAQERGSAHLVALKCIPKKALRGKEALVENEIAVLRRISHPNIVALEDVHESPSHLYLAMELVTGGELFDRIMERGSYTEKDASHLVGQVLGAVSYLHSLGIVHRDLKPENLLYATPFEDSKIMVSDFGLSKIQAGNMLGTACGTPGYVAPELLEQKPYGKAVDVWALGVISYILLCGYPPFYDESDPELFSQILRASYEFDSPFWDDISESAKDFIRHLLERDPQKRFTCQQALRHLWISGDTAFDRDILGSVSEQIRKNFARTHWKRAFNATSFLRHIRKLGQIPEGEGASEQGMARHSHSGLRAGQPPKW
Sequence of Proto-oncogene tyrosine-protein kinase receptor Ret (Homo sapiens) (P07949 whole entry): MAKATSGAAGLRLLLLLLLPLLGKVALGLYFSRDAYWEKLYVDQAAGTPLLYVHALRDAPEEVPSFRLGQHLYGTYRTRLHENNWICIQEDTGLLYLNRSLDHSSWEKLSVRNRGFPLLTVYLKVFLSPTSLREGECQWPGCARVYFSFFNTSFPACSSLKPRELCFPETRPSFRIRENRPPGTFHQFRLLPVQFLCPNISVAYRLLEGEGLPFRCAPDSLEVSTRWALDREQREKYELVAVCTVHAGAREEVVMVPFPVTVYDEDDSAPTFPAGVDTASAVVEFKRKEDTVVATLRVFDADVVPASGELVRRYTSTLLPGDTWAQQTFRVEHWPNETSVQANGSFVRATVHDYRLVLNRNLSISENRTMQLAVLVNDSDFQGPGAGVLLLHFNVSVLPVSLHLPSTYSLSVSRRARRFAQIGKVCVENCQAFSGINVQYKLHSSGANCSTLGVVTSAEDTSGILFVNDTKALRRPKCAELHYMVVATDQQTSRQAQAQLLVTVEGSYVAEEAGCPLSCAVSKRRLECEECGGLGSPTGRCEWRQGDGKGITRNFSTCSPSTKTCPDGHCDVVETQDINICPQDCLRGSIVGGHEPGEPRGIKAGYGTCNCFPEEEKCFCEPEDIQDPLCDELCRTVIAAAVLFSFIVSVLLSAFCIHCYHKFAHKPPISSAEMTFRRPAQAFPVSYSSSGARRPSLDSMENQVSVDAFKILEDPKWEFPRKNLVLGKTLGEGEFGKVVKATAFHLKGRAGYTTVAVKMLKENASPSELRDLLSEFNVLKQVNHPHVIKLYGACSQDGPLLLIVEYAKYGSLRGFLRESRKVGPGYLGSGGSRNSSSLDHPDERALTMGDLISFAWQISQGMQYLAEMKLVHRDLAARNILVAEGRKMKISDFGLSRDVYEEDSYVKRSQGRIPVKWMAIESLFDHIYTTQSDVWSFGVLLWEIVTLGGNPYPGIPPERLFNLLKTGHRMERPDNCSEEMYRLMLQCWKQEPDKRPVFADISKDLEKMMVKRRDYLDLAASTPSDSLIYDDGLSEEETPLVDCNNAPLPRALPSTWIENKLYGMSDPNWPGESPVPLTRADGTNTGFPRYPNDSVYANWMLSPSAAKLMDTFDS

inhibition [1]: 3%
fold change (FC) [2]: 0.62
fold change (FC) [3]: 0
Structure (SMILES): CNC(=O)c1ccccc1Oc1nc(Nc2cc(OC)c(OC)c(OC)c2)ncc1Br

fold change (FC) [4]: 0
inhibition [5]: 2%
inhibition [6]: 14%
Structure (SMILES): CC(C)[C@H](NC(=O)c1cc(-c2cnn3cc(-c4ccc(OCCN5CCCCC5)cc4)cnc23)cs1)C(F)(F)F

fold change (FC) [7]: 0.01
fold change (FC) [8]: 0
Structure (SMILES): O=C(N[C@@H](C1CC1)C(F)(F)F)c1cc(-c2cnn3cc(-c4ccc(F)cc4)cnc23)cs1
